Data set [1] is described as follows: Plasma nicotinamide, NAL and NAL-X levels by HPLC after i.p. nicotinylalanine with or without ASA in uninfected mice. It is filed as in vivo, C57BL/6 mice. The conditions noted are these: ASA at 20 and 100 mg/kg added to NAL. On the procedure:
The concentration of nicotinamide and its major metabolites were determined by comparison of peak area ratios of the unknown versus internal standard (6-methylnicotinamide, Sigma Chemical Company) to the standard curves run in control mouse blood plasma.
Mice were treated with racemic nicotinylalanine alone (400 mg/kg) or in combination with acetyl salicylic acid (ASA) at a dose of either 20 mg/kg or 100 mg/kg body weight. […] Control mice received the vehicle for the drug compositions, being phosphate buffered saline (PBS), at the same volume on the same dose schedule as the drug-treated mice. Chronic dosing was performed daily for two weeks, Monday through Friday, and one group of mice received only a single (acute) dose of nicotinylalanine. All mice were killed two hours after their final dose and blood was collected by cardiac puncture and stored on ice, until centrifugation in a microfuge at 10,000 rpm to obtain plasma.
Concentrations of nicotinamide, nicotinamide-oxide, 1-methyl-nicotinamide, and nicotinylalanine extracted from 90% methanol, dried under N2, and reconstituted in water as above were determined by comparison of the peak area ratios of the unknown vs. the internal standard to the standard curve. Concentrations of the unidentified nicotinylalanine metabolite (NAL-X) were determined in the same way as above, except peaks were compared to the standard curve for known nicotinylalanine. The results are expressed as nanomoles of nicotinamide and nicotinylalanine per ml of plasma (nmol/ml).

For data set [2] the following is noted: humans (Levy 1965); cited from earlier work.
A further data set relates to HIV-1 infected cells. The conditions noted are these: cultures of HIV-1 infected cells (Yamagoe 1991); cited from earlier work.
The subject of data set [3] is poly (ADP-ribose) synthetase. The conditions noted are these: crude or partially purified enzyme (Banasik 1992); cited from earlier work.
The conditions of data set [4]: human, in vivo; cited from earlier work.
The conditions of data set [5]: rodents (Shibata 1989); cited from earlier work.
The next data set has as its system kynureninase. To be noted: co-factor for kynureninase (Takeuchi and Shibata 1984); cited from earlier work.

The structures appear in SMILES notation.

On to `CC(=O)Oc1ccccc1C(=O)O` [ASA, acetylsalicylic acid, reference compound], for which the “Effect of added ASA on NAL-dependent nicotinamide plasma levels” value in data set [1] is given as “increases the NAL-dependent nicotinamide plasma levels in a dose-related manner”. In data set [2], the “Fraction conjugated to form salicyluric acid” value is on record as “up to 75%”.

On to `NC(=O)c1ccccc1` [benzamide], for which the “Antiviral activity (in words)” value with HIV-1 infected cells is listed as “significant antiviral activity”.

In the case of `NC(=O)c1cccnc1` [nicotinamide], in data set [3], the “Inhibition of poly (ADP-ribose) synthetase (in words)” value is recorded as “effective inhibitors of poly (ADP-ribose) synthetase”. In addition, the Side effects entry in data set [4] is “without any significant side effects”. Besides, in data set [5], the “Fraction converted to nicotinuric acid” value is given as “approximately 16%”. The “Antiviral activity (in words)” value in the data set on HIV-1 infected cells is “significant antiviral activity”.

As to `Cc1ncc(COP(=O)(O)O)c(C=O)c1O` [pyridoxal phosphate], the “Rate of conversion of nicotinylalanine to nicotinamide (in words)” value with kynureninase is listed as “increases the rate of conversion of nicotinylalanine to nicotinamide”.

Values taken from patent US5916906A, “Compositions comprising nicotinylalanine and an inhibitor of glycine conjugation or vitamin B6” (priority 1997, dated 1999).
